Columns and labels:
neurotoxicity (rotarod) = test: Neurotoxicity test (TOX), rotarod, mice; format: in vivo
Description: (§1) In order to define anticonvulsant activity, screening tests were performed, using animal models of seizures. […] Each substance (after dissolving in methylcellulose) was normally tested in doses 30, 100, and 300 mg/kg body weight (b.w.) (mice) or in 30 and 50 mg/kg b.w. (rats) in two possible routes of administration: intraperitoneal (i.p.) or oral (p.o.). Appropriate tests were performed 0.5 and 4 h after administration of the compound. […] (mice) the tests were also performed in doses 10 and 3 mg/kg b.w.
It is performed with use of rotarod test. The animal is placed on a plastic rod (1 inch in diameter), rotating 6 rpm. The rod is placed on a level discouraging the animal to jump off. […] Neurotoxicity is stated if the animal cannot stay on the rod for 1 min. in any of 3 trials. Normally the test is performed in dose 30 mg/kg b.w. in 4 mice (0.5 h) and in 2 mice (4 h), in the dose 100 mg/kg b.w. in 8 mice (0.5 h) and in 4 mice (4 h) and in the dose 300 mg/kg b.w. in 4 mice (0.5 h) and 2 mice (4 h).

[1] = system: maximal electroshock seizures; test: Maximum Electroshock Seizure (MES) test, mice; format: in vivo; conditions: mice
Description: as §1
Maximum Electroshock Seizure (MES) test is an electric test, verifying activity towards generalized tonic-clonic seizures (grand mal epilepsy). […] Its procedure consists in administration to an animal a mentioned dose, and after 0.5 or 4 h attaching corneal electrodes (after anesthetic eye-drops: 0.5% tetracaine hydrochloride in 0.9% NaCl) and turning on electric current (60 Hz, 0.2 s, 50 mA (mice) or 150 mA (rats)). […] Normally, in the dose 30 mg/kg b.w. the test is done in 1 mouse after 0.5 or 4 h, in the dose 100 mg/kg b.w.—in 3 mice, and in the dose 300 mg/kg b.w.—in 1 mouse.

[2] = mice, dose 100 mg/kg b.w., time 0.5 h
[3] = mice, dose 300 mg/kg b.w., time 0.5 h
[4] = mice, dose 30 mg/kg b.w., time 0.5 h
[5] = dose 100 mg/kg b.w., time 0.5 h

| Compound | TOX, No. of animals exhibiting motor impairment/no. of used animals (neurotoxicity (rotarod); [2]) | TOX, No. of animals exhibiting motor impairment/no. of used animals (neurotoxicity (rotarod); [3]) | MES, No. of protected animals/No. of used animals ([1]; dose 30 mg/kg b.w., time 0.5 h) | TOX, No. of animals exhibiting motor impairment/no. of used animals (neurotoxicity (rotarod); [4]) | TOX, No. of animals exhibiting motor impairment/no. of used animals (neurotoxicity (rotarod); mice, dose 100 mg/kg b.w., time 4 h) | MES, No. of protected animals/No. of used animals [1, 5] | TOX, No. of animals exhibiting motor impairment/no. of used animals (neurotoxicity (rotarod); mouse, in vivo, 100 mg/kg) | TOX, No. of animals exhibiting motor impairment/no. of used animals (neurotoxicity (rotarod); mouse, in vivo, 300 mg/kg) | MES, No. of protected animals/No. of used animals ([1]; dose 300 mg/kg b.w., time 0.5 h) | MES, No. of protected animals/No. of used animals ([1]; dose 100 mg/kg b.w., time 4 h) |
| --- | --- | --- | --- | --- | --- | --- | --- | --- | --- | --- |
| CCC(O)CNCCOc1c(C)cccc1Cl (stereo not drawn) [Compound 25, R,S-1N-[(2-chlor-6-methylphenoxy)ethyl]amino-2-butanol] | 8/8 | 4/4 | 1/1 |  |  |  |  |  |  |  |
| CCC(CO)NCCOc1c(C)cccc1Cl.Cl (stereo not drawn) [Compound 26a, R,S-2N-[(2-chlor-6-methylphenoxy)ethyl]amino-1-butanol hydrochloride] | 8/8 | 4/4 | 1/1 | 3/4 | 1/4 | 1/1 |  |  |  |  |
| CC[C@H](CO)NCCOc1c(C)cccc1Cl.Cl [Compound 27a, R-(−)-2N-[(2-chlor-6-methylphenoxy)ethyl]amino-1-butanol hydrochloride] | 7/8 | 4/4 | 1/1 |  |  | 2/3 |  |  |  |  |
| CC[C@@H](CO)NCCOc1c(C)cccc1Cl.Cl [Compound 28a, S-(+)-2N-[(2-chlor-6-methylphenoxy)ethyl]amino-1-butanol hydrochloride] | 5/8 | 4/4 |  |  |  | 1/1 |  |  |  |  |
| Cc1cccc(Cl)c1OCCNC(C)(CO)CO [Compound 29, 2N-[(2-chlor-6-methylphenoxy)ethyl]amino-2-methyl-1,3-propandiol] |  |  |  |  |  | 2/3 | 4/8 | 4/4 |  |  |
| Cc1cccc(Cl)c1OCCNCC(O)c1ccccc1 (stereo not drawn) [Compound 31, R,S-2N-[(2-chlor-6-methylphenoxy)ethyl]amino-1-phenylethanol] | 8/8 | 4/4 | 1/1 |  |  | 3/3 |  |  | 1/1 |  |
| CCC(O)CNCCOc1ccc(Cl)cc1C (stereo not drawn) [Compound 34, R,S-1N-[(4-chlor-2-methylphenoxy)ethyl]amino-2-butanol] | 7/8 | 4/4 |  | 1/4 |  | 3/3 |  |  |  |  |
| CCC(CO)NCCOc1ccc(Cl)cc1C (stereo not drawn) [Compound 35, R,S-2N-[(4-chlor-2-methylphenoxy)ethyl]amino-1-butanol] | 8/8 | 4/4 |  |  |  | 3/3 |  |  |  |  |
| Cc1cc(Cl)ccc1OCCNC(C)(C)CO [Compound 36, 2N-[(4-chlor-2-methylphenoxy)ethyl]amino-2-methyl-1-propanol] |  | 4/4 |  |  |  | 3/3 |  |  |  |  |
| Cc1cc(C)c(C)c(OCCNC(C)CO)c1 (stereo not drawn) [Compound 38, R,S-2N-[(2,3,5-trimethylphenoxy)ethyl]amino-1-propanol] |  |  | 1/1 |  |  | 3/3 |  | 4/4 |  | 2/2 |
| CCC(CO)NCCOc1cc(C)cc(C)c1C (stereo not drawn) [Compound 39, R,S-2N-[(2,3,5-trimethylphenoxy)ethyl]amino-1-butanol] |  |  | 1/1 |  |  | 3/3 | 7/8 | 4/4 |  | 1/3 |
